{"source": "patent US10912767B2", "about": "“Anthracycline prodrugs and methods of making and using the same” (THE REGENTS OF THE UNIVERSITY OF COLORADO, priority 2015, dated 2021)", "assay": "Quantum yield of photocleavage, He-Cd laser 325 nm, HPLC", "type": "physicochemical", "conditions": "325 nm", "experimental": "Initially, measurement of the quantum yield of photodoxazolidine R═H was done in a fully-absorbing solution of photoactive drug in a solution of 90% dimethylacetamide (DMA), 10% water in a 1×1 cm quartz cuvette equipped with a small magnetic stir bar. A stock of photodoxazolidine in DMA was diluted in 9:1 DMA:H2O to a final concentration of 373 μM in a final volume of 3.380 mL. […] The cuvette was placed into the path of an Omnichrome He-Cd laser (single-window power: 10.75 mW at 325 nm using a Scientech laser power meter). The solution was mixed by the stir bar, which was agitated with a magnetic stir plate placed vertically next to the cuvette. Aliquots of 20 μL were removed at times between 0 and 62 min of irradiation and those aliquots were analyzed by HPLC (method 2) for the ratio of dox to photodoxazolidine. The quantum yield was calculated from the ratio of molecules of doxorubicin (dox) formed to photons absorbed.\nTo allow for better comparison between the quantum yield of photocleavage of photodoxazolidine with the quantum yield for azido-PEG-photodoxazolidine, the measurement was retaken with 50% acetonitrile in water as a solvent. […] Photodoxazolidine (in DMF) was diluted with 30 mL of 50% acetonitrile to a final concentration of 104 μM. The solution was confirmed to be fully absorbing by monitoring the laser power exiting the cell throughout the course of the experiment, which never deviated from 0 mW. As above, the contents of the cell were mixed with a small magnetic stir bar. Aliquots of 50 μL were removed at various times and analyzed as described above. The calculated quantum yield in this solvent system was identical to that measured from the […] system used above.\nConcentration of azido-PEG-photodoxazolidine was determined via absorbance (λ=480 nm, ε=11500 M^−1 cm^−1). A sample ([…]) was dissolved in 1 mL of ACN and transferred to a cuvette. A 12.4 mW Omnichrome HeCd was used to irradiate the solution for 30 min at 325 nm. Aliquots of 10 μL were collected at different times and analyzed by HPLC to determine the % Dox in relation to that of azido-PEG-photodoxazolidine. In calculating quantum yield: power (without cuvette)=12.4 mW, (with cuvette)=10.7 mW, incident light=11.55 mW; energy=0.462 J, 7.55×1017 photons; t=40 sec when % Dox=9.2. Experiments were performed in triplicate.\nAzido-PEG-photodoxazolidine was irradiated with a 12.4 mW monochromatic laser at 325 nm for 30 min. Aliquots were collected throughout to determine the amount of azido-PEG-photodoxazolidine in relation to released doxorubicin, which was quantified by HPLC. […] The average of triplicate quantum yield experiments was 0.025. This value is in the low end of the quantum yield range, yet is beneficial because it signifies that UV must be applied for longer durations prior to release of the cytotoxic agent. This makes administration of this photo-activated prodrug safer, and its synthesis more practical.", "data": [{"smiles": "COc1cc(COC(=O)N2COC3C(C)OC(OC4CC(O)(C(=O)CO)Cc5c(O)c6c(c(O)c54)C(=O)c4c(OC)cccc4C6=O)CC32)c([N+](=O)[O-])cc1OC", "note": "(centres unmarked) [Photodoxazolidine]", "values": [{"measurement": "quantum yield", "setting": "50% acetonitrile in water, vs first solvent system", "value": "identical"}, {"measurement": "quantum yield", "setting": "90% dimethylacetamide, 10% water", "value": 0.002}]}]}
